Measurements as given in patent US8367625B2, “Antibacterial aminoglycoside analogs” (Achaogen, Inc., priority 2008, dated 2013).
≈ marks a conversion by molar mass, not a printed value.

Assays:
[1] = system: E. coli ATCC 25922 (AECO001); assay: MIC assay, CLSI broth microdilution, AECO001; assay type: cell-based; conditions: Escherichia coli; AECO001 is ATCC25922; Mueller Hinton Broth, 35 C, 20 hours
Protocol: (§1) Minimum inhibitory concentrations (MIC) were determined by reference Clinical and Laboratory Standards Institute (CLSI) broth microdilution methods per M7-A7 [2006]. Quality control ranges utilizing E. coli ATCC 25922, P. aeruginosa ATCC 27853 and S. aureus ATCC 29213, and interpretive criteria for comparator agents were as published in CLSI M100-S17 [2007]. Briefly, serial two-fold dilutions of the test compounds were prepared at 2× concentration in Mueller Hinton Broth. The compound dilutions were mixed in 96-well assay plates in a 1:1 ratio with bacterial inoculum. The inoculum was prepared by suspension of a colony from an agar plate that was prepared the previous day. Bacteria were suspended in sterile saline and added to each assay plate to obtain a final concentration of 5×10^5 CFU/mL. The plates were incubated at 35 C. for 20 hours in ambient air.

[2] = system: P. aeruginosa ATCC 27853 (APAE001); assay: MIC assay, CLSI broth microdilution, APAE001; assay type: cell-based; conditions: Pseudomonas aeruginosa; APAE001 is ATCC27853; Mueller Hinton Broth, 35 C, 20 hours
Protocol: as §1

NCC[C@H](O)C(=O)N[C@@H]1C[C@H](N)[C@@H](O[C@H]2O[C@H](CNCCO)C=C[C@H]2N)[C@H](O[C@@H]2O[C@H](CO)[C@@H](O[C@H]3O[C@@H](CN)[C@@H](O)[C@H](O)[C@H]3N)[C@H]2O)[C@H]1O [1/20] was tested, and the MIC [1] was ≤ 1 µg/mL and the MIC [2] was 1 to 16 µg/mL (≈ 1.38 to 22 µM).
